{
  "source": "patent US20220162257A1",
  "about": "“3ALPHA, 5BETA-NEUROACTIVE STEROIDS FOR THE TREATMENT OF EPILEPSY AND SEIZURE DISEASES” (USTAV ORGANICKE CHEMIE A BIOCHEMIE AV CR, V. V. I., priority 2019, published 2022)",
  "key": {"[1]": {"test_system": "PTZ-induced seizures in 12- and 25-day-old rats", "assay": "PTZ-induced generalized tonic-clonic seizures in immature rats", "type": "in vivo, rat", "description": "Anticonvulsant effect of compounds was evaluated in two models of epileptic seizures in immature rats (PTZ model and 6 Hz model). PTZ convulsions were tested in 12- and 25-day-old rats, 6 Hz-induced seizures in 15- and 25-day-old rats. Young adult rats (P60) were also used in either test. Day of birth was taken as P0. Experiments evaluating precognitive effect were performed in adult male rats of the Wistar and Long Evans strain (3 months old, b.w. 300-400 g). All animals were obtained from a breeding facility of Institute of Physiology CAS (certificate No. 1396/2014-MZE-17214) Animals were held in standard conditions (21±1° C., humidity 50-60%, light regime 12/12) with unrestricted access to food and water. All manipulations with animals were performed according to the https://nc3rs.org.uk/arrive-guidelines and to Czech Animal Protection Law 246/1992 Sb. And international directives (EU Directive 2010/63/EU for animals' experiments).\nTwo age groups of immature male Wistar rats were used in either experiment. In PTZ model P12 corresponding by a maturation of the brain to early postnatal human babies, i.e. to the period where children epileptic encephalopathy mostly resistant to present pharmacotherapy start to appear. The other group—P25 animals corresponds with school-age children. Generalized tonic-clonic seizures were elicited by a subcutaneous injection of PTZ in a dose of 100 mg/kg. The 6 Hz model was tested in P15 (at this age eyes are open and it is not necessary to surgically distract lids). Biphasic pulses with […] were applied transcorneally for 3 s by a constant current stimulator of Ugo Basile company. PTZ induced generalized seizures represent a model of human generalized tonic-clonic seizures, seizures elicited by 6 Hz stimulation are generally taken as a model of temporal (psychomotor, complex partial) seizures. Differences in latencies and seizure severity were evaluated by ANOVA with a subsequent pairwise comparison by Holm-Sidak test. Incidence of seizures were evaluated by Fischer exact test. Critical p value was set at p=0.05.\nAnticonvulsant effect was studied in 12- and 25-day-old male Wistar rats. Steroid derivatives were administered at doses of 1, 5 and 10 mg/kg i.p. 20 min before the administration of PTZ (100 mg/kg s.c.)."}, "[2]": {"test_system": "PTZ-induced seizures in zebrafish (Danio rerio)", "assay": "pentetrazol (PTZ)-induced seizures in zebrafish larvae", "type": "in vivo", "conditions": "7 dpf larvae, PTZ 5 mmol/L; for epileptiform locomotor activity in the dark phase/light test, sedation: doses of 1, 3 and 5 mg/kg; for locomotor activity epileptiform induced by PTZ (spontaneous locomotor activity, maximum velocity, angle turns): doses of 1, 3 and 5 mg/kg (1, 3 and 5 μmol/L in the source)", "description": "Adults wild-type (strain AB) zebrafish (Danio rerio) were maintained at 28-29° C. on a light cycle of 14 h light:10h dark (lights on at 7 am; lights off at 9 pm) at ZeClinics animal facility (Barcelona). All procedures involving animals and their care were conducted accordingly to CEA-OH/9421/2 authorization from Government of Catalonia. Embryos obtained by pairwise mating were raised in E3 media at the controlled temperature of 28.5° C. until 7 days post-fertilization (dpf) when the experiments were performed.\nThe anticonvulsant activity of the claimed compounds on the nervous system of zebrafish (Danio rerio). This test is the modern alternative to tests in adult animals as Danio rerio is very versatile organism that has a number of physiological similarities to mammals, including humans (Expert Opin. Drug Metab. Toxicol. 2009, 5, 393). Steroidal compounds were tested in three concentrations (1, 3 and 5 μmol.L^−1) on 7 days post-fertilization (dpf) wild-type larvae. As a negative control, sibling larvae were incubated with DMSO 1%, which allows us to detect behavioral alterations of PTZ treated larvae. Seizures were induced by treatment of pentetrazol (PTZ) at the dose 5 mmol.L^−1. Commercially available anti-convulsant drug Topiramate was used as comparator. Results were analyzed with GraphPad Prism software and statistical significance is assessed by the One-way ANOVA statistical analysis followed by Tukey's multiple comparisons test. The zebrafish larvae locomotion and response to visual stimuli are traced and analyzed by the EthoVision XT 12 software and the DanioVision device from Noldus Information Technologies, Wageningen, The Netherlands.\nThis closed system consists of a camera placed above a chamber with circulating water and a temperature sensor that is set at 28° C. Individualized larvae in a 48-wells plate are placed in the chamber, which can provide different stimuli (light/dark environment, tapping, sound) controlled by the software. Prior to each experiment, larvae were left for 10 minutes in dark for acclimation, then predetermined series of alternating dark and light environment are presented to the larvae. The final experimental protocol is divided in three main part: first a 15 minutes step with light on, then a series of 5 short flashes of light to induce epileptic seizures and finally a 25 minutes dark/light alternating environments phase. Different sets of information can be extrapolated from the different phases: while the first step is useful to detect changes in the total larvae locomotion, the second part allows us to analyze the larval response to a seizure-inducing visual stimulus and measure the seizure characteristics: the maximum velocity and the number of angles turns (specific of seizure erratic movement). The final phase is useful to detect anomalies in larval movement and deviations from the stereotyped behavior (natural locomotor behavior of zebrafish is active in dark and immobile in light). The anticonvulsant effect of compounds was studied at doses of […] for the compound shown in Example 1, Example 2 and Example 3."}, "[3]": {"test_system": "experimental seizures in animal models", "conditions": "cited from earlier work; for effect in experimental seizures: seizures elicited by pentylenetetrazol, pilocarpine, NMDA and kainic acid"}, "adults and children": {"test_system": "adults and children", "conditions": "clinical studies; cited from earlier work"}, "[4]": {"conditions": "both age groups (P12, P25), 5 and 10 mg/kg i.p."}},
  "note": "Where a name gives a salt, the structure may show the parent alone.",
  "data": [
    {"smiles": "C/C=C1/CC[C@H]2[C@@H]3CC[C@@H]4C[C@H](OC(=O)C5CCC(=O)N5)CC[C@]4(C)[C@H]3CC[C@]12C", "note": "(stereo partly shown)", "values": [
      {"measurement": "melting point", "value": "155 to 157", "unit": "°C"}
    ]},
    {"smiles": "C[C@@]12CCC[C@H]1[C@@H]1CC[C@@H]3C[C@H](OC(=O)C4CCCC(=O)N4)CC[C@]3(C)[C@H]1CC2", "note": "(stereo partly shown)", "values": [
      {"measurement": "melting point", "value": "109 to 111", "unit": "°C"}
    ]},
    {"smiles": "C[C@]12CC[C@@H](OC(=O)C3CCC(=O)N3)C[C@H]1CC[C@@H]1[C@@H]2CC[C@]2(C)[C@@H](C#N)CC[C@@H]12", "note": "(stereo partly drawn) [Example 3, (3R,5R,8R,9S,10S,13S,14S,17S)-17-Cyano-10,13-dimethylhexadecahydro-1H-cyclopenta[a]phenanthren-3-yl 5-oxopyrrolidine-2-carboxylate]", "values": [
      {"measurement": "incidence of GTCS", "setting": "[1]; P12 rats, 1, 5, 10 mg/kg i.p.", "value": "significantly affected only by the 5-mg/kg dose"},
      {"measurement": "incidence of GTCS", "setting": "[1]; P25 rats, 5 and 10 mg/kg i.p.", "value": "suppressed incidence of GTCS"},
      {"measurement": "epileptiform locomotor activity in the dark phase/light test, sedation", "setting": "[2]", "value": "decreased epileptiform locomotor activity in the dark phase/light test without causing sedation"},
      {"measurement": "locomotor activity epileptiform induced by PTZ (spontaneous locomotor activity, maximum velocity, angle turns)", "setting": "[2]", "value": "significantly reduced the locomotor activity epileptiform induced by PTZ"}
    ]},
    {"smiles": "C[C@H]1CC[C@H]2[C@@H]3CC[C@@H]4C[C@H](OC(=O)C5CCC(=O)N5)CC[C@]4(C)[C@H]3CC[C@]12C", "note": "(stereo partly shown)", "values": [
      {"measurement": "melting point", "value": "157 to 158", "unit": "°C"}
    ]},
    {"smiles": "CC(=O)[C@H]1CC[C@H]2[C@@H]3CCC4=CC(=O)CC[C@]4(C)[C@H]3CC[C@]12C", "note": "[PROG, pregn-4-en-3,20-dione]", "values": [
      {"measurement": "effect in experimental seizures", "setting": "[3]", "value": "significant effect"}
    ]},
    {"smiles": "C[C@@]12CCC[C@H]1[C@@H]1CC[C@@H]3C[C@H](OCCOC(=O)C4CCC(=O)N4)CC[C@]3(C)[C@H]1CC2", "note": "(stereo partly shown)", "values": [
      {"measurement": "melting point", "value": "110 to 111", "unit": "°C"}
    ]},
    {"smiles": "CC(=O)[C@H]1CC[C@H]2[C@@H]3CC[C@H]4C[C@H](O)CC[C@]4(C)[C@H]3CC[C@]12C", "note": "[ALLO, 20-oxo-5α-pregnan-3α-ol]", "values": [
      {"measurement": "frequency of seizures, mortality and cellular death", "setting": "[3]; animal models of epilepsy", "value": "deceases frequency of seizures, mortality and cellular death"},
      {"measurement": "effect in experimental seizures", "setting": "[3]", "value": "significant effect"}
    ]},
    {"smiles": "CC(=O)[C@H]1CC[C@H]2[C@@H]3CC[C@H]4C[C@@H](OC(=O)[C@@H]5CCC(=O)N5)CC[C@]4(C)[C@H]3CC[C@]12C", "note": "[Allopregnanolone (S)-5-oxopyrrolidin-2-carboxylate, reference compound]", "values": [
      {"measurement": "action against generalized tonic-clonic seizures", "setting": "[1]; PTZ 100 mg/kg s.c., 12- and 25-day-old rats", "value": "only a moderate action"}
    ]},
    {"smiles": "CC(=O)[C@H]1CC[C@H]2[C@@H]3CC[C@@H]4C[C@H](OC(=O)C5CCC(=O)N5)CC[C@]4(C)[C@H]3[C@H](O)C[C@]12C", "note": "(stereo partly shown)", "values": [
      {"measurement": "melting point", "value": "183 to 185", "unit": "°C"}
    ]},
    {"smiles": "C[C@]12CC[C@@H](OC(=O)C3CCCC(=O)N3)C[C@H]1CC[C@@H]1[C@@H]2CC[C@]2(C)[C@@H](C#N)CC[C@@H]12", "note": "(stereo partly shown)", "values": [
      {"measurement": "melting point", "value": "69 to 71", "unit": "°C"}
    ]},
    {"smiles": "CC(=O)[C@H]1CC[C@H]2[C@@H]3CC[C@H]4C[C@](C)(O)CC[C@]4(C)[C@H]3CC[C@]12C", "note": "[Ganaxolone]", "values": [
      {"measurement": "tolerability", "setting": "adults and children", "value": "good tolerability in adults as well as children"},
      {"measurement": "generation of seizures", "setting": "[3]; rodents", "value": "able to prevent generation of seizures in rodents"}
    ]},
    {"smiles": "C[C@]12CC[C@@H](OC(=O)C3CCC(=O)N3)C[C@H]1CC[C@@H]1[C@@H]2CC[C@]2(C)C(=O)CC[C@@H]12", "note": "(stereo partly shown)", "values": [
      {"measurement": "melting point", "value": "114 to 116", "unit": "°C"}
    ]},
    {"smiles": "CC(=O)NCC(=O)O[C@@H]1CC[C@@]2(C)[C@H](CC[C@@H]3[C@@H]2CC[C@]2(C)[C@@H](C(C)=O)CC[C@@H]32)C1", "values": [
      {"measurement": "melting point", "value": "111 to 113", "unit": "°C"}
    ]},
    {"smiles": "CC(=O)[C@H]1CC[C@H]2[C@@H]3CCC4=C[C@@H](OC(=O)[C@@H]5CCCN5)CC[C@]4(C)[C@H]3CC[C@]12C", "note": "[PI-33, 3β-L-proline-progesterone-HCl, reference compound]", "values": [
      {"measurement": "incidence of generalized tonic-clonic seizures", "setting": "[1]; 1 and 10 mg/kg doses", "value": "did not change incidence of generalized tonic-clonic seizures"}
    ]},
    {"smiles": "C[C@@]12CCC[C@H]1[C@@H]1CC[C@@H]3C[C@H](OCCOC(=O)C4CCCC(=O)N4)CC[C@]3(C)[C@H]1CC2", "note": "(stereo partly shown)", "values": [
      {"measurement": "melting point", "value": "117 to 119", "unit": "°C"}
    ]},
    {"smiles": "CC(=O)[C@H]1CC[C@H]2[C@@H]3CC[C@@H]4C[C@H](OC(=O)C5CCCC(=O)N5)CC[C@]4(C)[C@H]3CC[C@]12C", "note": "(stereo partly drawn) [Example 2, (3R,5R,8R,9S,10S,13S,14S,17S)-17-Acetyl-10,13-dimethylhexadecahydro-1H-cyclopenta[a]phenantren-3-yl 6-oxopiperidine-2-carboxylate]", "values": [
      {"measurement": "incidence of GTCS", "setting": "[1]; [4]", "value": "suppressed significantly"},
      {"measurement": "seizure severity", "setting": "[1]; [4]", "value": "suppressed significantly"},
      {"measurement": "epileptiform locomotor activity in the dark phase/light test, sedation", "setting": "[2]", "value": "decreased epileptiform locomotor activity in the dark phase/light test without causing sedation"},
      {"measurement": "locomotor activity epileptiform induced by PTZ (spontaneous locomotor activity, maximum velocity, angle turns)", "setting": "[2]", "value": "significantly reduced the locomotor activity epileptiform induced by PTZ"}
    ]},
    {"smiles": "C[C@@]12CCC[C@H]1[C@@H]1CC[C@@H]3C[C@H](OC(=O)C4CCC(=O)N4)CC[C@]3(C)[C@H]1CC2", "note": "(stereo partly shown)", "values": [
      {"measurement": "melting point", "value": "136 to 137", "unit": "°C"}
    ]}
  ]
}
